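A five-concentration, 48-hour dose response in 96-well plates underlies each endpoint, interpolated linearly between surrounding concentrations. GI50 = concentration required for 50% inhibition of growth.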 Active and inactive are the calls of the source. Rule as the data show it: active = GI50 up to about 1.1 µM and inactive = higher.
Assays:
Test in all cases: NCI tumour cell line growth inhibition, 48 h
SW-620 = tested on: SW-620
LOX IMVI = tested on: LOX IMVI
U-251 = tested on: U-251
MDA-MB-231 = tested on: MDA-MB-231
SF-295 = tested on: SF-295
HOP-92 = tested on: HOP-92
EKVX = tested on: EKVX
UO-31 = tested on: UO-31
DU-145 = tested on: DU-145
MCF7 = tested on: MCF7
PC-3 = tested on: PC-3
SNB-75 = tested on: SNB-75
CCRF-CEM = tested on: CCRF-CEM
NCI-H522 = tested on: NCI-H522
RPMI-8226 = tested on: RPMI-8226
UACC-257 = tested on: UACC-257
ACHN = tested on: ACHN
NCI-H226 = tested on: NCI-H226
OVCAR-5 = tested on: OVCAR-5
OVCAR-8 = tested on: OVCAR-8
KM12 = tested on: KM12
SK-OV-3 = tested on: SK-OV-3
NCI-H23 = tested on: NCI-H23
Hs-578T = tested on: Hs-578T
UACC-62 = tested on: UACC-62
A498 = tested on: A498
HOP-62 = tested on: HOP-62
SK-MEL-5 = tested on: SK-MEL-5
OVCAR-3 = tested on: OVCAR-3
786-0 = tested on: 786-0
COLO 205 = tested on: COLO 205
SN12C = tested on: SN12C
K562 = tested on: K562
Malme-3M = tested on: Malme-3M
SK-MEL-2 = tested on: SK-MEL-2
SF-268 = tested on: SF-268
HCC 2998 = tested on: HCC 2998
TK-10 = tested on: TK-10
MDA-MB-435 = tested on: MDA-MB-435
BT-549 = tested on: BT-549
HT-29 = tested on: HT-29
T47D = tested on: T47D
HCT-116 = tested on: HCT-116
CAKI-1 = tested on: CAKI-1
RXF 393 = tested on: RXF 393
HL-60 = tested on: HL-60
SK-MEL-28 = tested on: SK-MEL-28
M14 = tested on: M14
MDA-N = tested on: MDA-N
HCT-15 = tested on: HCT-15
SR = tested on: SR
MOLT-4 = tested on: MOLT-4
OVCAR-4 = tested on: OVCAR-4
NCI/ADR-RES = tested on: NCI/ADR-RES
A549 = tested on: A549
IGROV-1 = tested on: IGROV-1
NCI-H460 = tested on: NCI-H460
SNB-19 = tested on: SNB-19
SF-539 = tested on: SF-539

In the case of CCc1n[nH]c(=O)n1N1C(=O)C2CCCCC2C1=O (stereo not drawn), the GI50 (SW-620) is reported as > 100 µM (inactive), the GI50 (LOX IMVI) is reported as > 100 µM (inactive) and the GI50 (U-251) is reported as > 100 µM (inactive). For the same compound, the GI50 (MDA-MB-231) was > 100 µM (inactive), the GI50 (SF-295) was > 100 µM (inactive) and the GI50 (HOP-92) was > 100 µM (inactive). For the same compound, the GI50 (EKVX) was > 100 µM (inactive), the GI50 (UO-31) was > 100 µM (inactive) and the GI50 (DU-145) was > 100 µM (inactive). The GI50 (MCF7) was > 100 µM (inactive), the GI50 (PC-3) was > 100 µM (inactive) and the GI50 (SNB-75) was > 100 µM (inactive). For the same compound, the GI50 (CCRF-CEM) was > 100 µM (inactive), the GI50 (NCI-H522) was > 100 µM (inactive) and the GI50 (RPMI-8226) was > 100 µM (inactive). The GI50 (UACC-257) was > 100 µM (inactive), the GI50 (ACHN) was > 100 µM (inactive) and the GI50 (NCI-H226) was > 100 µM (inactive). The GI50 (OVCAR-5) was > 100 µM (inactive), the GI50 (OVCAR-8) was > 100 µM (inactive) and the GI50 (KM12) was > 100 µM (inactive). For the same compound, the GI50 (SK-OV-3) was > 100 µM (inactive), the GI50 (NCI-H23) was > 100 µM (inactive) and the GI50 (Hs-578T) was > 100 µM (inactive). For the same compound, the GI50 (UACC-62) was > 100 µM (inactive), the GI50 (A498) was > 100 µM (inactive) and the GI50 (HOP-62) was > 100 µM (inactive). The GI50 (SK-MEL-5) was > 100 µM (inactive), the GI50 (OVCAR-3) was > 100 µM (inactive) and the GI50 (786-0) was > 100 µM (inactive). The GI50 (COLO 205) was > 100 µM (inactive), the GI50 (SN12C) was > 100 µM (inactive) and the GI50 (K562) was > 100 µM (inactive). The GI50 (Malme-3M) was > 100 µM (inactive), the GI50 (SK-MEL-2) was > 100 µM (inactive) and the GI50 (SF-268) was > 100 µM (inactive). The GI50 (HCC 2998) was > 100 µM (inactive), the GI50 (TK-10) was > 100 µM (inactive) and the GI50 (MDA-MB-435) was > 100 µM (inactive). For the same compound, the GI50 (BT-549) was > 100 µM (inactive), the GI50 (HT-29) was > 100 µM (inactive) and the GI50 (T47D) was > 100 µM (inactive). For the same compound, the GI50 (HCT-116) was > 100 µM (inactive), the GI50 (CAKI-1) was > 100 µM (inactive) and the GI50 (RXF 393) was > 100 µM (inactive). The GI50 (HL-60) was > 100 µM (inactive), the GI50 (SK-MEL-28) was > 100 µM (inactive) and the GI50 (M14) was > 100 µM (inactive). For the same compound, the GI50 (MDA-N) was > 100 µM (inactive), the GI50 (HCT-15) was greater than 100 µM and the GI50 (SR) was > 100 µM (inactive). For the same compound, the GI50 (MOLT-4) was > 100 µM (inactive), the GI50 (OVCAR-4) was > 100 µM (inactive) and the GI50 (NCI/ADR-RES) was > 100 µM (inactive). The GI50 (A549) was > 100 µM (inactive) and the GI50 (IGROV-1) was > 100 µM (inactive).
With Clc1ccc(COC(Cn2ccnc2)c2ccc(Cl)cc2Cl)cc1 (stereo not drawn) [ECONAZOLE] the GI50 (SW-620) was 12.1 µM (inactive), the GI50 (LOX IMVI) was 6.98 µM (inactive) and the GI50 (U-251) was 13.2 µM (inactive). The GI50 (MDA-MB-231) was 13.3 µM (inactive), the GI50 (SF-295) was 10.8 µM (inactive) and the GI50 (HOP-92) was 10.6 µM (inactive). For the same compound, the GI50 (EKVX) was 11.8 µM (inactive), the GI50 (UO-31) was 4.13 µM (inactive) and the GI50 (DU-145) was 16.5 µM (inactive). For the same compound, the GI50 (MCF7) was 12.4 µM (inactive), the GI50 (PC-3) was 10.8 µM (inactive) and the GI50 (SNB-75) was 13.7 µM (inactive). The GI50 (CCRF-CEM) was 8.49 µM (inactive), the GI50 (NCI-H522) was 4.57 µM (inactive) and the GI50 (RPMI-8226) was 8.26 µM (inactive). For the same compound, the GI50 (UACC-257) was 13.1 µM (inactive), the GI50 (ACHN) was 15.5 µM (inactive) and the GI50 (OVCAR-5) was 11.5 µM (inactive). For the same compound, the GI50 (OVCAR-8) was 11.4 µM (inactive), the GI50 (NCI-H460) was 11.9 µM (inactive) and the GI50 (KM12) was 14 µM (inactive). The GI50 (SK-OV-3) was 13.8 µM (inactive), the GI50 (NCI-H23) was 13.1 µM (inactive) and the GI50 (Hs-578T) was 17 µM (inactive). The GI50 (UACC-62) was 12.1 µM (inactive), the GI50 (SNB-19) was 14.3 µM (inactive) and the GI50 (A498) was 14.2 µM (inactive). The GI50 (HOP-62) was 12.9 µM (inactive), the GI50 (OVCAR-3) was 10.9 µM (inactive) and the GI50 (786-0) was 13.1 µM (inactive). For the same compound, the GI50 (COLO 205) was 11.5 µM (inactive), the GI50 (SN12C) was 12.5 µM (inactive) and the GI50 (K562) was 4.76 µM (inactive). The GI50 (Malme-3M) was 12.3 µM (inactive), the GI50 (SK-MEL-2) was 14.8 µM (inactive) and the GI50 (SF-268) was 14.3 µM (inactive). For the same compound, the GI50 (HCC 2998) was 14.6 µM (inactive), the GI50 (TK-10) was 14 µM (inactive) and the GI50 (MDA-MB-435) was 11.8 µM (inactive). For the same compound, the GI50 (BT-549) was 18.9 µM (inactive), the GI50 (HT-29) was 8.69 µM (inactive) and the GI50 (T47D) was 6.9 µM (inactive). The GI50 (HCT-116) was 8.71 µM (inactive), the GI50 (CAKI-1) was 11.6 µM (inactive) and the GI50 (RXF 393) was 14.9 µM (inactive). The GI50 (HL-60) was 6.87 µM (inactive), the GI50 (SK-MEL-28) was 17.2 µM (inactive) and the GI50 (M14) was 15 µM (inactive). For the same compound, the GI50 (MDA-N) was 14.1 µM (inactive), the GI50 (HCT-15) was 12.7 µM and the GI50 (SR) was 5.32 µM (inactive). The GI50 (MOLT-4) was 2.99 µM (inactive), the GI50 (SF-539) was 18.8 µM (inactive) and the GI50 (OVCAR-4) was 11.8 µM (inactive). For the same compound, the GI50 (NCI/ADR-RES) was 4.44 µM (inactive), the GI50 (A549) was 11.2 µM (inactive) and the GI50 (IGROV-1) was 11.9 µM (inactive).
